The structures appear in SMILES notation. In brackets after ≈: the same amount, converted by molar mass.

What all share (type): functional
One assay deals with KB. As to the kind of experiment: Cytotoxicity against human KB cells after 72 hrs. The conditions noted are these: read-out: ED50 (the source's name).
In the next assay the test system is P388. As to the kind of experiment: Cytotoxicity against mouse P388 cells after 48 hrs. The note with it: P388, 48 h, read-out: ED50 (the source's name).
Another assay relates to HT-1080. As to the kind of experiment: Cytotoxicity against human HT1080 cells after 48 hrs. The note with it: HT-1080, 48 h, read-out: ED50 (the source's name).
Assay [1] is described as follows: Cytotoxicity against human BC1 cells after 72 hrs. The note with it: BC1, 72 h, read-out: ED50 (the source's name).
In the next assay the test system is Col2. The assay can be described thus: Cytotoxicity against human Col2 cells after 72 hrs. The note with it: Col2, 72 h, read-out: ED50 (the source's name).
In another assay the test system is Lu1. As to the kind of experiment: Cytotoxicity against human Lu1 cells. The conditions noted are these: read-out: ED50 (the source's name).
A further assay has as its system SK-MEL-2. The assay can be described thus: Cytotoxicity against human SK-MEL-2 cells after 72 hrs. The conditions noted are these: SK-MEL-2, 72 h, read-out: ED50 (the source's name).

With `C=C(C)[C@H]1Cc2c(ccc3c2O[C@@H]2COc4cc(OC)c(OC)cc4[C@@H]2C3=O)O1` [ROTENONE], the EC50 in the assay with KB is 0.067 µg/mL (≈ 0.17 µM); in the assay on P388, 0.005 µg/mL (≈ 0.0127 µM); with HT-1080, 0.047 µg/mL (≈ 0.119 µM); in assay [1], 0.039 µg/mL (≈ 0.0989 µM); in the assay on Col2, 0.15 µg/mL (≈ 0.38 µM); with Lu1, 0.044 µg/mL (≈ 0.112 µM). The EC50 in the assay on SK-MEL-2 came to 0.092 µg/mL (≈ 0.233 µM).

Values taken from ChEMBL document CHEMBL1147325, “13C-nmr spectral assignment and evaluation of the cytotoxic potential of rotenone” (1989).
